Measurements taken from article PMC10914734 (Signal Transduction and Targeted Therapy, 2024).
Like-named read-outs stand apart in the source and are kept apart here.

Test system: SARS-CoV-2 XBB 1.16 variant
Set-up: species or system K18-hACE2 mice
Details: mouse; for Decrease of lung viral load (viral RNA copies) compared to the vehicle group: in vivo

Compound | Effect against SARS-CoV-2 XBB 1.16 variant in vivo (in words) | Decrease of lung viral load (viral RNA copies) compared to the vehicle group (10 mg/kg) [log10 units] | Decrease of lung viral load (viral RNA copies) compared to the vehicle group (20 mg/kg) [log10 units]
O=C(NCc1ccccc1)C(=O)[C@H](C[C@@H]1CCCNC1=O)NC(=O)[C@H](Cc1ccc(F)cc1)NC(=O)c1cc2ccccc2o1 [14a, N-((S)-1-(((S)-4-(benzylamino)-3,4-dioxo-1-((S)-2-oxopiperidin-3-yl)butan-2-yl)amino)-3-(4-fluorophenyl)-1-oxopropan-2-yl)benzofuran-2-carboxamide] | potent effect | 2.0 | 2.6
O=C(NCc1ccccc1)C(=O)[C@H](C[C@@H]1CCCNC1=O)NC(=O)[C@H](CC1CCCCC1)NC(=O)c1cc2ccccc2o1 [14b, N-((S)-1-(((S)-4-(benzylamino)-3,4-dioxo-1-((S)-2-oxopiperidin-3-yl)butan-2-yl)amino)-3-cyclohexyl-1-oxopropan-2-yl)benzofuran-2-carboxamide] | potent effect |  | 
